Experimental data published in patent US20260000676A1, “CHROMAN DERIVATIVES AS ESTROGEN RECEPTOR DEGRADERS” (THE REGENTS OF THE UNIVERSITY OF MICHIGAN, priority 2022, published 2026).
Counter-ions that a name gives are not always drawn.

How the values were obtained:
ER [1] = molecular target: T1, ER (Homo sapiens (Human), UniProt P03372); assay: In-cell western (ICW) ER degradation assay in MCF-7 cells; assay type: cell-based; conditions: MCF7, 16 hrs; for DC50: ER degradation; for Dmax: MCF7, maximal ER degradation; for MCF7 Dmax %: maximal ER degradation
ER [2] = molecular target: T1, ER; assay: In-cell western (ICW) ER degradation assay in T47D cells; assay type: cell-based; conditions: 16 hrs; for DC50: ER degradation; for Dmax / T47D Dmax %: maximal ER degradation
Procedure: ERa degradative activity of compounds can be assessed in MCF-7 and T47D Cells. MCF-7 and T47D cell are seeded and are subsequently treated with the compounds at certain concentrations (e.g., 0.02 to 300 nM). DMSO can be used as vehicle control. Cells are fixed and are blocked with Intercept (PBS) Blocking Buffer (e.g., Li-COR, Odyssey Blocking Buffer), and are stained with ER (e.g., 1:500, Cell signaling) primary antibody for overnight at cold room. Secondary Antibody (e.g., IRDye 800CW Goat anti-Rabbit IgG) and CellTag 700 Stain are added in Intercept (PBS) Blocking Buffer. Finally, cell plate is placed in incubator to dry. Image and signal are captured on Odyssey® DLx Imaging System.
Day 3: After 16 hrs of compounds treatment, cells were fixed by 4% PFA and permeabilized with elution buffer (0.1% Triton X-100 in 1% PBS Solution). Subsequently, cells were blocked with Intercept (PBS) Blocking Buffer (Li-COR, Odyssey Blocking Buffer), and were stained with ER (1:500, Cell signaling) primary antibody for overnight at cold room.
Day 4: Remove the buffer, add IRDye 800CW Goat anti-Rabbit IgG Secondary Antibody (1:2000) and CellTag 700 Stain (1:500) in Intercept (PBS) Blocking Buffer. Finally, cell plate is placed in incubator to dry. Image and signal were captured on Odyssey® DLx Imaging System.

CRBN/DDB1 = CRBN/DDB1 (Homo sapiens (Human), UniProt Q96SW2); assay: HTRF binding assay to CRBN/DDB1; conditions: read-out: CRBN HTRF IC50
Procedure: The binding potency was determined using HTRF assay technology (Perkin Elmer). Compounds were serially diluted in DMSO and 0.2 μL volume was transferred to white 384-well plate.

Sequence of CRBN/DDB1 (Q96SW2 whole entry): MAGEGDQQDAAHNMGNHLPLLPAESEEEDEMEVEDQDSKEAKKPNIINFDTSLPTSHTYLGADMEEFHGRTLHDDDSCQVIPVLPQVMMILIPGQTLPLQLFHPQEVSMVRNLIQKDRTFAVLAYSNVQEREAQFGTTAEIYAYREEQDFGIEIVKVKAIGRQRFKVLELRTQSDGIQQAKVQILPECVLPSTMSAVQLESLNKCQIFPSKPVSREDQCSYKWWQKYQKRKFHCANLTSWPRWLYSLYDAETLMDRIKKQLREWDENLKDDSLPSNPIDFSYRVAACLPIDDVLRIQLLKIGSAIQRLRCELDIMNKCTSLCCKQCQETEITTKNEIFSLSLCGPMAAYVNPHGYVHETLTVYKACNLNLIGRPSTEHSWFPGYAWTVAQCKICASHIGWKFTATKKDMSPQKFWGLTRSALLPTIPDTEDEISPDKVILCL
Sequence of CRBN/DDB1 (Q16531 whole entry partner): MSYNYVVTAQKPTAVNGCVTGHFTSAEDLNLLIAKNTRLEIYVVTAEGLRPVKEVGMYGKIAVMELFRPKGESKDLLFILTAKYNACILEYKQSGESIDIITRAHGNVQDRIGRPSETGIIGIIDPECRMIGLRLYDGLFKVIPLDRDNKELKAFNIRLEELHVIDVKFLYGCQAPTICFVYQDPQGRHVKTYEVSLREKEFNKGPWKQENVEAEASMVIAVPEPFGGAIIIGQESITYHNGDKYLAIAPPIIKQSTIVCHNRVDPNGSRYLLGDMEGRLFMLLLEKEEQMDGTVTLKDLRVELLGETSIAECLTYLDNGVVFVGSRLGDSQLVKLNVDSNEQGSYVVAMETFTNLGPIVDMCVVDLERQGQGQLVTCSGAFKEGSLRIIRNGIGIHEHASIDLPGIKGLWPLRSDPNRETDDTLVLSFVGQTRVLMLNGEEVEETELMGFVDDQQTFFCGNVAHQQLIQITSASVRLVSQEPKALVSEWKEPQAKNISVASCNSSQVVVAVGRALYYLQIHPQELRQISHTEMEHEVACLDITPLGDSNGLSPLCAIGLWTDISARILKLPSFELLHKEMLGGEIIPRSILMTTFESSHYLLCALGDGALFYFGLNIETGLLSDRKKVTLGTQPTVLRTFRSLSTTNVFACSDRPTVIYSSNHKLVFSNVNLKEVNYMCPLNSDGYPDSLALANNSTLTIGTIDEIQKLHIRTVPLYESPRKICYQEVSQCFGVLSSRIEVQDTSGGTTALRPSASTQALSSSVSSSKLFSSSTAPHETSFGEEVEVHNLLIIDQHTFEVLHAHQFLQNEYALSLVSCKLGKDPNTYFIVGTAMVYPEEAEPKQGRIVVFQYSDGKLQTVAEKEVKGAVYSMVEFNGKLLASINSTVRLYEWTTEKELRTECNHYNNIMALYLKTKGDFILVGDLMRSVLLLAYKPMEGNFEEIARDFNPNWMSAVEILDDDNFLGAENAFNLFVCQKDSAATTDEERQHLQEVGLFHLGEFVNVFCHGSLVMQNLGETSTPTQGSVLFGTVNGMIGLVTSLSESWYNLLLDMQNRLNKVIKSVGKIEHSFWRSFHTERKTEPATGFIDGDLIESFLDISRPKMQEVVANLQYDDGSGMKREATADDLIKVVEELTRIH
T1 sequence (P03372 whole entry): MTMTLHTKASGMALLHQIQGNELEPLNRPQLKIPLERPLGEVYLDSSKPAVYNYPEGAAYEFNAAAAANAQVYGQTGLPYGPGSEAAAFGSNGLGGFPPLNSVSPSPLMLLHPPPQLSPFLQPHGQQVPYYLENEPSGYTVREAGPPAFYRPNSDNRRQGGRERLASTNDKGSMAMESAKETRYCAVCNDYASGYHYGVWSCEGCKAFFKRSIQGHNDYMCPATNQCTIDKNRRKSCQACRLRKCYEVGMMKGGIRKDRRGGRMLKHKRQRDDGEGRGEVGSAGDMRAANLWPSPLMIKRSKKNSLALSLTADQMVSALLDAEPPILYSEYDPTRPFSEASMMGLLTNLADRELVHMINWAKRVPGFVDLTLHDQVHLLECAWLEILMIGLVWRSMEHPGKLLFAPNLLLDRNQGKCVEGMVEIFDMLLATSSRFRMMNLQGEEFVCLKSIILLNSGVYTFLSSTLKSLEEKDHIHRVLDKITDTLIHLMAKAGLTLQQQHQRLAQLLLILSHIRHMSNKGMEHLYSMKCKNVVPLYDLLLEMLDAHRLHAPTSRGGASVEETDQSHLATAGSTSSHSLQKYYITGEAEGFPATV

| SMILES | DC50 (ER [1]) [nM] | Dmax (ER [1]) [%] | DC50 (ER [2]) [nM] | Dmax (ER [2]) [%] | IC50 (CRBN/DDB1) [nM] | MCF7 Dmax % (ER [1]) | T47D Dmax % (ER [2]) |
| --- | --- | --- | --- | --- | --- | --- | --- |
| O=C1CC[C@@H](Nc2ccc(C3CCN(C[C@@H]4COC5(CCN(c6ccc([C@H]7c8ccc(O)cc8OC[C@H]7c7ccccc7)cc6)CC5)C4)CC3)c(F)c2)C(=O)N1 (mixture of isomers) [Compound A162, 3-((3-fluoro-4-(1-(((R)-8-(4-((3RS, 4SR)-7-hydroxy-3-phenylchroman-4-yl)phenyl)-1-oxa-8-azaspiro[4.5]decan-3-yl)methyl)piperidin-4-yl)phenyl)amino)piperidine-2,6-dione] | < 1 | 25 to 50 | < 1 | ≥ 75 | < 50 |  |  |
| COc1cccc([C@H]2COc3cc(O)ccc3[C@H]2c2ccc(N3CCC(CN4CCN5c6ccc7c(c6OC[C@H]5C4)CN(C4CCC(=O)NC4=O)C7=O)CC3)cc2)c1 (single isomer, unassigned) [Compound A33] | 1 to 10 |  | 1 to 10 |  | < 50 |  |  |
| O=C1CCC(N2C(=O)c3cc4c(cc3C2=O)CN(C(=O)CN2CCC3(CC2)CCN(c2ccc([C@H]5c6ccc(O)cc6OC[C@H]5c5ccccc5)cc2)CC3)C4)C(=O)N1 (single isomer, unassigned) [Compound A54, formate] | 10 to 100 | 25 to 50 | 1 to 10 | ≥ 75 | 500 to 5000 |  |  |
| O=C1CCC(N2C(=O)c3cc4c(cc3C2=O)CN(C(=O)CN2CC3(CCN(c5ccc([C@H]6c7ccc(O)cc7OC[C@H]6c6ccccc6)cc5)CC3)C2)C4)C(=O)N1 (single isomer, unassigned) [Compound A55, formate] | > 100 | < 25 | > 100 | < 25 | 500 to 5000 |  |  |
| CC(C(=O)N1Cc2cc3c(cc2C1)C(=O)N(C1CCC(=O)NC1=O)C3=O)N1CCC2(CCN(c3ccc([C@H]4c5ccc(O)cc5OC[C@H]4c4ccccc4)cc3)CC2)CC1 (single isomer, unassigned) [Compound A57] | > 100 | < 25 | > 100 | < 25 | > 5000 |  |  |
| COC[C@H](C(=O)N1Cc2cc3c(cc2C1)C(=O)N(C1CCC(=O)NC1=O)C3)N1CCC2(CCN(c3ccc([C@@H]4c5ccc(O)cc5OC[C@@H]4c4ccccc4)cc3)CC2)CC1 (single isomer, unassigned) [Compound A60] | < 1 | 25 to 50 | 1 to 10 | < 25 | 50 to 500 |  |  |
| O=C1CCC(N2Cc3cc4c(cc3C2=O)OC[C@@H]2CN(CC3CCN(c5ccc([C@H]6c7ccc(O)cc7OC[C@H]6c6ccccc6)cn5)CC3)CCN42)C(=O)N1 (single isomer, unassigned) [Compound A61] | 1 to 10 | 25 to 50 | 1 to 10 | 50 to 75 | 50 to 500 |  |  |
| O=C1CCC(N2Cc3c(ccc4c3OC[C@H]3CN(CC5CC6(CCN(c7ccc([C@@H]8c9ccc(O)cc9OC[C@@H]8c8ccccc8)cn7)CC6)C5)CCN43)C2=O)C(=O)N1 (single isomer, unassigned) [Compound A65] | 1 to 10 |  | 1 to 10 |  | 50 to 500 | D (“D”; <25%) | C (“C”: 25%-50%) |
| O=C1CCC(N2Cc3cc(N4CCN(CC5CC6(CCN(c7ccc([C@@H]8c9ccc(O)cc9OC[C@@H]8c8ccccc8)cn7)CC6)C5)CC4)ccc3C2=O)C(=O)N1 (single isomer, unassigned) [Compound A67] | > 100 |  | 10 to 100 |  | 50 to 500 | D (“D”; <25%) | D (“D”; <25%) |
| O=C1CCC(N2Cc3c(ccc4c3OC[C@H]3CN(CC5CCN(c6ccc([C@@H]7c8ccc(O)cc8OC[C@@H]7c7ccccc7)cn6)CC5)CCN43)C2=O)C(=O)N1 (single isomer, unassigned) [Compound A69] | 1 to 10 | < 25 | 1 to 10 | 25 to 50 | 50 to 500 |  |  |
| O=C1CCC(N2Cc3cc4c(cc3C2=O)OC[C@@H]2CN(CC3CCN(c5ccc([C@@H]6c7ccc(O)cc7OC[C@@H]6c6ccccc6)cn5)CC3)CCN42)C(=O)N1 (single isomer, unassigned) [Compound A70] | > 100 |  | 1 to 10 |  | 50 to 500 |  |  |
| O=C1CCC(Nc2ccc(C3CCN(CC4CCN(c5ccc([C@@H]6c7ccc(O)cc7OC[C@@H]6c6ccccc6)cc5)CC4)CC3)c(F)c2)C(=O)N1 (single isomer, unassigned) [Compound A72] | > 100 | < 25 | < 1 | 25 to 50 | 50 to 500 |  |  |
| Cn1c(=O)n(C2CCC(=O)NC2=O)c2ccc(C3CCN(CC4CC5(CCN(c6ccc([C@@H]7c8ccc(O)cc8OC[C@@H]7c7ccccc7)cc6)CC5)C4)CC3)cc21 (single isomer, unassigned) [Compound A73] | < 1 | 50 to 75 | < 1 | 50 to 75 | < 50 |  |  |
| O=C1CCC(Nc2ccc(C3CCN(CC4CC5(CCN(c6ccc([C@@H]7c8ccc(O)cc8OC[C@@H]7c7ccccc7)cc6)CC5)C4)CC3)c(F)c2)C(=O)N1 (single isomer, unassigned) [Compound A75] | < 1 | 25 to 50 | 1 to 10 | 50 to 75 | 50 to 500 |  |  |
| O=C1CCC(N2C(=O)c3cc4c(cc3C2=O)CN(C(=O)C2CCN(C3CCN(c5ccc([C@@H]6c7ccc(O)cc7OC[C@@H]6c6ccccc6)cc5)CC3)CC2)C4)C(=O)N1 (single isomer, unassigned) [Compound A79] | < 1 | ≥ 75 | < 1 | ≥ 75 | 500 to 5000 |  |  |
| COc1cc(N2CCC(CN3CCN4c5cc6c(cc5OC[C@H]4C3)C(=O)N(C3CCC(=O)NC3=O)C6)CC2)ccc1[C@@H]1c2ccc(O)cc2OC[C@@H]1c1ccccc1 (single isomer, unassigned) [Compound A84, 3-((R)-3-((1-(4-((3S,4R)-7-hydroxy-3-phenylchroman-4-yl)-3-methoxyphenyl)piperidin-4-yl)methyl)-8-oxo-1,2,3,4,4a,5,8,10-octahydro-9H-pyrazino[1′,2′:4,5][1,4]oxazino[2,3-f]isoindol-9-yl)piperidine-2,6-dione] | < 1 |  | < 1 |  | 500 to 5000 |  |  |
| O=C1CCC(NC(=O)c2ccc(N3CCN(CC4CCN(c5ccc([C@@H]6c7ccc(O)cc7OC[C@@H]6c6ccccc6)cc5)CC4)CC3)cn2)C(=O)N1 (single isomer, unassigned) [Compound A88] | 1 to 10 | 50 to 75 | 1 to 10 | 50 to 75 | > 5000 |  |  |
| O=C1CC[C@H](N2Cc3c(ccc4c3OC[C@H]3CN(CC5CC6(CCN(c7ccc([C@@H]8c9ccc(O)cc9OC[C@@H]8c8ccccc8)cc7)CC6)C5)CCN43)C2=O)C(=O)N1 (single isomer, unassigned) [Compound A90] | 1 to 10 |  | < 1 | 50 to 75 | > 5000 | B (“B”: >50% and <75%) |  |
| O=C1CCC(Nc2ccc3c(c2)OC[C@H]2CN(CC4CCN(c5ccc([C@@H]6c7ccc(O)cc7OC[C@@H]6c6ccccc6)cc5)CC4)CCN32)C(=O)N1 (single isomer, unassigned) [Compound A91, hydrochloride] | 1 to 10 |  | 1 to 10 |  | > 5000 |  |  |
| O=C1CCC(NC(=O)c2ccc(N3CCN(CC4CCN(c5ccc([C@H]6c7ccc(O)cc7OC[C@H]6c6ccccc6)cc5F)CC4)CC3)cn2)C(=O)N1 (single isomer, unassigned) [Compound A100] | 1 to 10 | 50 to 75 | 1 to 10 | 50 to 75 | > 5000 |  |  |
| O=C1CCC(NC(=O)c2ccc3c(n2)OC[C@H]2CN(CC4CCN(c5ccc([C@@H]6c7ccc(O)cc7OC[C@@H]6c6ccccc6)cc5F)CC4)CCN32)C(=O)N1 (single isomer, unassigned) [Compound A104] | 1 to 10 | ≥ 75 | 1 to 10 | ≥ 75 | 500 to 5000 |  |  |
| O=C1CCN(c2ccc(N3CCC4(CC3)CC(CN3CCN(c5ccc([C@H]6c7ccc(O)cc7OC[C@H]6c6ccccc6)cc5)CC3)C4)cc2)C(=O)N1 (single isomer, unassigned) [Compound A107] | 1 to 10 | 25 to 50 | < 1 | 25 to 50 | > 5000 |  |  |
| O=C1CCC(Nc2ccc3c(c2)OC[C@H]2CN(CC4CC5(CCN(c6ccc([C@@H]7c8ccc(O)cc8OC[C@@H]7c7ccccc7)cc6)CC5)C4)CCN32)C(=O)N1 (stereo partly drawn) [Compound A94, 3-(((R)-3-((7-(4-((3S,4R)-7-hydroxy-3-phenylchroman-4-yl)phenyl)-7-azaspiro[3.5]nonan-2-yl)methyl)-1,2,3,4,4a,5-hexahydrobenzo[b]pyrazino[1,2-d][1,4]oxazin-8-yl)amino)piperidine-2,6-dione] |  |  | 1 to 10 | 50 to 75 | 500 to 5000 |  |  |
